PubChem BioAssay (NCI)
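Tested at 5 concentrations; 48 h exposure; 96-well plates; endpoints linearly interpolated, else capped at highest concentration. GI50 = concentration required for 50% inhibition of growth. The concentration for full growth arrest is given as TGI.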

Tests used:
Assay in all cases: NCI anticancer screen, dose series, 48 h
K-562 leukemia = system: K-562 leukemia
UO-31 renal = system: UO-31 renal
SK-MEL-28 melanoma = system: SK-MEL-28 melanoma
T-47D breast = system: T-47D breast
U251 CNS = system: U251 CNS
ACHN renal = system: ACHN renal
A498 renal = system: A498 renal
SF-268 CNS = system: SF-268 CNS
SNB-19 CNS = system: SNB-19 CNS
NCI-H460 lung = system: NCI-H460 lung
MDA-MB-231 breast = system: MDA-MB-231 breast
HCT-15 colon = system: HCT-15 colon
TK-10 renal = system: TK-10 renal
CAKI-1 renal = system: CAKI-1 renal
HT29 colon = system: HT29 colon
MCF7 breast = system: MCF7 breast
HOP-92 NSCLC = system: HOP-92 NSCLC
SK-MEL-2 melanoma = system: SK-MEL-2 melanoma
SW-620 colon = system: SW-620 colon
CCRF-CEM leukemia = system: CCRF-CEM leukemia
BT-549 breast = system: BT-549 breast
SF-295 CNS = system: SF-295 CNS
SNB-75 CNS = system: SNB-75 CNS
RXF 393 renal = system: RXF 393 renal
RPMI-8226 leukemia = system: RPMI-8226 leukemia
786-0 renal = system: 786-0 renal
IGROV1 ovarian = system: IGROV1 ovarian
M14 melanoma = system: M14 melanoma
NCI-H226 lung = system: NCI-H226 lung
SR leukemia = system: SR leukemia
MALME-3M melanoma = system: MALME-3M melanoma
SK-MEL-5 melanoma = system: SK-MEL-5 melanoma
HCC-2998 colon = system: HCC-2998 colon
OVCAR-3 ovarian = system: OVCAR-3 ovarian
HL-60(TB) leukemia = system: HL-60(TB) leukemia
OVCAR-4 ovarian = system: OVCAR-4 ovarian
SN12C renal = system: SN12C renal
COLO 205 colon = system: COLO 205 colon
SK-OV-3 ovarian = system: SK-OV-3 ovarian
NCI/ADR-RES ovarian = system: NCI/ADR-RES ovarian
PC-3 prostate = system: PC-3 prostate
EKVX NSCLC = system: EKVX NSCLC
HOP-62 NSCLC = system: HOP-62 NSCLC
SF-539 CNS = system: SF-539 CNS
DU-145 prostate = system: DU-145 prostate
MOLT-4 leukemia = system: MOLT-4 leukemia
UACC-257 melanoma = system: UACC-257 melanoma
UACC-62 melanoma = system: UACC-62 melanoma
HS 578T breast = system: HS 578T breast
A549 NSCLC = system: A549 NSCLC
OVCAR-5 ovarian = system: OVCAR-5 ovarian

Structure (SMILES): COc1ccc2[nH]cc(-c3csc4nc(-c5ccccc5)cn34)c2c1
- GI50 (K-562 leukemia): 139 nM
- TGI (K-562 leukemia): > 100000 nM
- GI50 (UO-31 renal): 465 nM
- TGI (UO-31 renal): 32000 nM
- GI50 (SK-MEL-28 melanoma): 724 nM
- TGI (SK-MEL-28 melanoma): > 90200 nM
- GI50 (T-47D breast): 382 nM
- TGI (T-47D breast): > 100000 nM
- GI50 (U251 CNS): 401 nM
- GI50 (ACHN renal): 612 nM
- TGI (ACHN renal): 20600 nM
- GI50 (A498 renal): 3730 nM
- GI50 (SF-268 CNS): 823 nM
- TGI (SF-268 CNS): > 80800 nM
- GI50 (SNB-19 CNS): 616 nM
- TGI (SNB-19 CNS): > 100000 nM
- GI50 (NCI-H460 lung): 374 nM
- TGI (NCI-H460 lung): 2530 nM
- GI50 (MDA-MB-231 breast): 524 nM
- TGI (MDA-MB-231 breast): > 100000 nM
- GI50 (HCT-15 colon): 242 nM
- TGI (HCT-15 colon): > 23100 nM
- GI50 (TK-10 renal): 6970 nM
- TGI (TK-10 renal): 42600 nM
- GI50 (CAKI-1 renal): 404 nM
- TGI (CAKI-1 renal): 12100 nM
- GI50 (HT29 colon): 324 nM
- TGI (HT29 colon): 1120 nM
- GI50 (MCF7 breast): 276 nM
- TGI (MCF7 breast): > 100000 nM
- GI50 (HOP-92 NSCLC): 424 nM
- TGI (HOP-92 NSCLC): 5300 nM
- GI50 (SK-MEL-2 melanoma): 291 nM
- TGI (SK-MEL-2 melanoma): 851 nM
- GI50 (SW-620 colon): 360 nM
- TGI (SW-620 colon): > 100000 nM
- GI50 (CCRF-CEM leukemia): 248 nM
- TGI (CCRF-CEM leukemia): > 100000 nM
- GI50 (BT-549 breast): 508 nM
- TGI (BT-549 breast): 4800 nM
- GI50 (SF-295 CNS): 395 nM
- TGI (SF-295 CNS): 4240 nM
- GI50 (SNB-75 CNS): 240 nM
- TGI (SNB-75 CNS): 779 nM
- GI50 (RXF 393 renal): 553 nM
- TGI (RXF 393 renal): 4770 nM
- GI50 (RPMI-8226 leukemia): 416 nM
- TGI (RPMI-8226 leukemia): 3860 nM
- GI50 (786-0 renal): 599 nM
- TGI (786-0 renal): > 19900 nM
- GI50 (IGROV1 ovarian): 477 nM
- TGI (IGROV1 ovarian): > 100000 nM
- GI50 (M14 melanoma): 295 nM
- TGI (M14 melanoma): > 100000 nM
- GI50 (NCI-H226 lung): 947 nM
- TGI (NCI-H226 lung): 5760 nM
- GI50 (SR leukemia): 66 nM
- TGI (SR leukemia): > 100000 nM
- GI50 (MALME-3M melanoma): 492 nM
- TGI (MALME-3M melanoma): 31800 nM
- GI50 (SK-MEL-5 melanoma): 407 nM
- TGI (SK-MEL-5 melanoma): 3640 nM
- GI50 (HCC-2998 colon): 602 nM
- TGI (HCC-2998 colon): 3750 nM
- GI50 (OVCAR-3 ovarian): 355 nM
- TGI (OVCAR-3 ovarian): 3320 nM
- GI50 (HL-60(TB) leukemia): 287 nM
- TGI (HL-60(TB) leukemia): > 100000 nM
- GI50 (OVCAR-4 ovarian): 2220 nM
- TGI (OVCAR-4 ovarian): > 100000 nM
- GI50 (SN12C renal): 470 nM
- TGI (SN12C renal): > 100000 nM
- GI50 (COLO 205 colon): 334 nM
- TGI (COLO 205 colon): 1150 nM
- GI50 (SK-OV-3 ovarian): 489 nM
- TGI (SK-OV-3 ovarian): > 43900 nM
- GI50 (NCI/ADR-RES ovarian): 252 nM
- TGI (NCI/ADR-RES ovarian): 1320 nM
- GI50 (PC-3 prostate): 412 nM
- TGI (PC-3 prostate): > 100000 nM
- GI50 (EKVX NSCLC): 804 nM
- TGI (EKVX NSCLC): > 100000 nM
- GI50 (HOP-62 NSCLC): 579 nM
- TGI (HOP-62 NSCLC): 19100 nM
- GI50 (SF-539 CNS): 359 nM
- TGI (SF-539 CNS): 1830 nM
- GI50 (DU-145 prostate): 576 nM
- TGI (DU-145 prostate): > 100000 nM
- GI50 (MOLT-4 leukemia): 440 nM
- TGI (MOLT-4 leukemia): > 51900 nM
- GI50 (UACC-257 melanoma): 525 nM
- TGI (UACC-257 melanoma): > 100000 nM
- GI50 (UACC-62 melanoma): 327 nM
- TGI (UACC-62 melanoma): 20800 nM
- GI50 (HS 578T breast): 328 nM
- TGI (HS 578T breast): 10300 nM
- GI50 (A549 NSCLC): 891 nM
- TGI (A549 NSCLC): > 88400 nM
- GI50 (OVCAR-5 ovarian): 709 nM
- TGI (OVCAR-5 ovarian): > 100000 nM
